Laboratory results: patent publication US20050090522A1 (priority 2001, published 2005)

System: HIV-1
Assay: HIV-1 single-round infectious luciferase reporter virus (pseudotype) assay in HeLa CD4 CCR5 cells
Assay type: cell-based
Conditions: Human immunodeficiency virus 1, HeLa-CD4/CCR5, read-out: EC50 Group from TABLE 1, HeLa CD4 CCR5 cells, single-round infectious luciferase reporter virus
In short: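 HeLa CD4 CCR5 cells (5×10^4/well, DMEM + 10% FBS) were treated with compound (final <10 μM) and infected with single-round luciferase reporter virus made in 293 cells, at MOI ~0.01. Luciferase was read 72 h post infection. EC50 came from 10-concentration percent-inhibition curves fitted to a four-parameter logistic model.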

Q: How did the EC50 turn out when COc1cnc(-c2cnc(N3CCOCC3)cn2)c2[nH]cc(C(=O)C(=O)N3CCN(C(=O)c4ccccc4)CC3)c12 [Example 178, 1-benzoyl-4-[(4-methoxy-7-(2-(4-morpholinyl)-pyrazin-5-yl)-6-azaindol-3-yl)-oxoacetyl]piperazine] was run?
A: < 1 µM

Q: For O=C(C(=O)N1CCN(C(=O)c2ccccc2)CC1)c1c[nH]c2c(-n3ccnc3)ncc(F)c12 [Example 218], which EC50 is on record?
A: < 1 µM

Q: How did the EC50 turn out when COc1cnc(-c2cnc(NC(C)=O)cn2)c2[nH]cc(C(=O)C(=O)N3CCN(C(=O)c4ccccc4)CC3)c12 [Example 99, 1-(benzoyl)-4-[(4-methoxy-7-(2-acetylamino-pyrazin-5-yl)-6-azaindol-3-yl)-oxoacetyl]piperazine] was run?
A: < 1 µM

Q: For COc1cnc(-n2ccc(-c3cccc(C(=O)O)c3)n2)c2[nH]cc(C(=O)C(=O)N3CCN(C(=O)c4ccccc4)CC3)c12 [Example 294, 1-benzoyl-4-[(4-methoxy-7-(3-(3-hydroxylcarbonylphenyl)-pyrazol-1-yl)-6-azaindol-3-yl)-oxoacetyl]piperazine], which EC50 is on record?
A: < 1 µM

Q: C[C@@H]1CN(C(=O)c2ccccc2)CCN1C(=O)C(=O)c1c[nH]c2c(-c3cnc(O)cn3)nccc12 [Example 157] was tested. Which EC50 did it give?
A: < 1 µM

Q: With COc1cnc(-n2ccc(C(F)(F)F)n2)c2[nH]cc(C(=O)C(=O)N3CCN(C(=O)c4ccccc4)CC3)c12 [Example 192, 1-benzoyl-4-[(4-methoxy-7-(3-trifluoromethylpyrazol-1-yl)-6-azaindol-3-yl)-oxoacetyl]piperazine] as the compound, how does the EC50 read?
A: < 1 µM

Q: With C[C@@H]1CN(C(=O)c2ccccc2)CCN1C(=O)C(=O)c1c[nH]c2c(-c3cnc(N)cn3)nccc12 [Example 150, (R)-1-benzoyl-3-methyl-4-[(7-(5-amino-pyrazin-2-yl)-6-azaindol-3-yl)-oxoacetyl]piperazine] as the compound, how does the EC50 read?
A: < 1 µM

Q: COc1cnc(-c2ccncc2)c2[nH]cc(C(=O)C(=O)N3CCN(C(=O)c4ccccc4)CC3)c12 [Example 14, 1-benzoyl-4-[(4-methoxy-7-(pyridin-4-yl)-6-azaindol-3-yl)-oxoacetyl]piperazine] was tested. Which EC50 did it give?
A: < 1 µM

Q: COc1cnc(-n2ccc(CCCC#N)n2)c2[nH]cc(C(=O)C(=O)N3CCN(C(=O)c4ccccc4)CC3)c12 [Example 279, 1-benzoyl-4-[(4-methoxy-7-(3-(3-cyano-propan-1-yl)-pyrazol-1-yl)-6-azaindol-3-yl)-oxoacetyl]piperazine] was tested. Which EC50 did it give?
A: < 1 µM

Q: Which EC50 does the source give for O=C(C(=O)N1CCN(C(=O)c2ccccc2)CC1)c1c[nH]c2c(-c3cnccn3)nccc12 [Example 34, 1-benzoyl-4-[(7-(pyrazin-2-yl)-6-azaindol-3-yl)-oxoacetyl]piperazine] here?
A: < 1 µM

Q: How did the EC50 turn out when CCOC(=O)c1cc(C)nn1-c1ncc(F)c2c(C(=O)C(=O)N3CCN(C(=O)c4ccccc4)CC3)c[nH]c12 [Example 311] was run?
A: < 1 µM

Q: With COc1cnc(-c2cnccn2)c2[nH]cc(C(=O)C(=O)N3CCN(C(=O)c4ccccc4)CC3)c12 [Example 32, 1-benzoyl-4-[(4-methoxy-7-(pyrazin-2-yl)-6-azaindol-3-yl)-oxoacetyl]piperazine] as the compound, how does the EC50 read?
A: < 1 µM

Q: For COc1cnc(-n2ncnc2C)c2[nH]cc(C(=O)C(=O)N3CCN(C(=O)c4ccccc4)CC3)c12 [Example 319], which EC50 is on record?
A: < 1 µM

Q: How did the EC50 turn out when O=C(C(=O)N1CCN(C(=O)c2ccccc2)CC1)c1c[nH]c2c(-c3ccccn3)nccc12 [Example 19, 1-benzoyl-4-[(7-(pyridin-2-yl)-6-azaindol-3-yl)-oxoacetyl]piperazine] was run?
A: < 1 µM

Q: With CCCCCc1ccn(-c2ncc(OC)c3c(C(=O)C(=O)N4CCN(C(=O)c5ccccc5)CC4)c[nH]c23)n1 [Example 250, 1-benzoyl-4-[(4-methoxy-7-(3-n-pentyl-pyrazol-1-yl)-6-azaindol-3-yl)-oxoacetyl]piperazine] as the compound, how does the EC50 read?
A: < 1 µM

Q: How did the EC50 turn out when COc1cnc(-c2ccoc2)c2[nH]cc(C(=O)C(=O)N3CCN(C(=O)c4ccccc4)CC3)c12 [Example 81, 1-benzoyl-4-[(4-methoxy-7-(furan-3-yl)-6-azaindol-3-yl)-oxoacetyl]piperazine] was run?
A: < 1 µM

Q: For COc1cnc(-c2cnc(C(=O)NC(C)(C)C)cn2)c2[nH]cc(C(=O)C(=O)N3CCN(C(=O)c4ccccc4)CC3)c12 [Example 15, 1-benzoyl-4-[(4-methoxy-7-(2-(1,1-dimethylethylaminocarbonyl)-pyrazin-5-yl)-6-azaindol-3-yl)-oxoacetyl]piperazine], which EC50 is on record?
A: < 1 µM

Q: Which EC50 does the source give for COc1cnc(-c2cncs2)c2[nH]cc(C(=O)C(=O)N3CCN(C(=O)c4ccccn4)CC3)c12 [Example 151, 1-picolinoyl-4-[(4-methoxy-7-(thiazol-5-yl)-6-azaindol-3-yl)-oxoacetyl]piperazine] here?
A: < 1 µM

Q: O=C(O)c1ccc(-c2nccc3c(C(=O)C(=O)N4CCN(C(=O)c5ccccc5)CC4)c[nH]c23)cc1 [Example 4, 1-benzoyl-4-[(7-(4-carboxy-phenyl)-6-azaindol-3-yl)-oxoacetyl]piperazine] was tested. Which EC50 did it give?
A: < 1 µM

Q: Which EC50 does the source give for C[C@@H]1CN(C(=O)c2ccccn2)CCN1C(=O)C(=O)c1c[nH]c2c(-c3cc4ccccc4o3)nccc12 [Example 107, (R)-1-picolinoyl-3-methyl-4-[(7-(benzofuran-2-yl)-6-azaindol-3-yl)-oxoacetyl]piperazine] here?
A: < 1 µM

Q: For C[C@@H]1CN(C(=O)c2ccccc2)CCN1C(=O)C(=O)c1c[nH]c2c(-c3cncc(NC(=O)C4OC4C(=O)O)n3)nccc12 (stereo in doubt) [Example 296, 3-(6-{3-[2-(4-Benzoyl-2-methyl-piperazin-1-yl)-2-oxo-acetyl]-1H-pyrrolo[2,3-c]pyridin-7-yl}-pyrazin-2-ylcarbamoyl)-oxirane-2-carboxylic acid], which EC50 is on record?
A: < 1 µM

Q: COc1cnc(-c2ncc(OC)c3c(C(=O)C(=O)N4CCN(C(=O)c5ccccn5)CC4)c[nH]c23)cn1 [Example 182, 1-picolinoyl-4-[(4-methoxy-7-(2-methoxy-pyrazin-5-yl)-6-azaindol-3-yl)-oxoacetyl]piperazine] was tested. Which EC50 did it give?
A: < 1 µM

Q: COc1cnc(-n2ccc(-c3ccc(C(=O)O)cc3)n2)c2[nH]cc(C(=O)C(=O)N3CCN(C(=O)c4ccccc4)CC3)c12 [Example 292, 1-benzoyl-4-[(4-methoxy-7-(3-(4-hydroxylcarbonylphenyl)-pyrazol-1-yl)-6-azaindol-3-yl)-oxoacetyl]piperazine] was tested. Which EC50 did it give?
A: < 1 µM

Q: How did the EC50 turn out when O=C(Nc1cccnc1)c1ncc(Cl)c2c(C(=O)C(=O)N3CCN(C(=O)c4ccccc4)CC3)c[nH]c12 [Example 152] was run?
A: < 1 µM

Q: C[C@@H]1CN(C(=O)c2ccccc2)CCN1C(=O)C(=O)c1c[nH]c2c(-c3ccco3)nccc12 [Example 6, 1-benzoyl-3-®-methyl-4-[(7-(furan-2-yl)-6-azaindol-3-yl)-oxoacetyl]piperazine] was tested. Which EC50 did it give?
A: < 1 µM

Same assay, conditions: Human immunodeficiency virus 1, HeLa-CD4/CCR5, read-out: EC50 Group from Table 1, Table 2-1; HeLa CD4 CCR5 cells, single-round luciferase reporter virus

Q: With COc1cnc(-n2ccc(C(C)O)n2)c2[nH]cc(C(=O)C(=O)N3CCN(C(=O)c4ccccc4)[C@H](C)C3)c12 (stereo partly drawn) [Example 235, (R)-1-benzoyl-2-methyl-4-[(4-methoxy-7-(3-(1-hydroxylethyl)-pyrazol-1-yl)-6-azaindol-3-yl)-oxoacetyl]piperazine] as the compound, how does the EC50 read?
A: < 1 µM

Q: For COc1cnc(-c2cnc(N)cn2)c2[nH]cc(C(=O)C(=O)N3CCN(C(=O)c4ccccn4)[C@H](C)C3)c12 [Example 267], which EC50 is on record?
A: < 1 µM

Q: For CCc1n[nH]c(-c2ncc(OC)c3c(C(=O)C(=O)N4CCN(C(=O)c5ccccc5)[C@H](C)C4)c[nH]c23)n1 [Example 336], which EC50 is on record?
A: < 1 µM

Q: Which EC50 does the source give for COc1cnc(-n2nccc2C)c2[nH]cc(C(=O)C(=O)N3CCN(C(=O)c4ccccc4)[C@H](C)C3)c12 [Example 242, (R)-1-benzoyl-2-methyl-4-[(4-methoxy-7-(5-methyl-pyrazol-1-yl)-6-azaindol-3-yl)-oxoacetyl]piperazine] here?
A: < 1 µM

Q: For COc1cnc(-n2ccc(C(C)=O)n2)c2[nH]cc(C(=O)C(=O)N3CCN(C(=O)c4ccccc4)[C@H](C)C3)c12 [Example 259, (R)-1-benzoyl-2-methyl-4-[(4-methoxy-7-(3-methylcarbonyl-pyrazol-1-yl)-6-azaindol-3-yl)-oxoacetyl]piperazine], which EC50 is on record?
A: < 1 µM

Q: For COc1cnc(-c2cnccn2)c2[nH]cc(C(=O)C(=O)N3CCN(C(=O)c4cccnc4)[C@H](C)C3)c12 [Example 270], which EC50 is on record?
A: < 1 µM

Q: How did the EC50 turn out when COc1cnc(-n2ccc(-c3ccc(C)nc3)n2)c2[nH]cc(C(=O)C(=O)N3CCN(C(=O)c4ccccc4)[C@H](C)C3)c12 [Example 263, (R)-1-benzoyl-2-methyl-4-[(4-methoxy-7-(3-(2-methylpyridin-5-yl)pyrazol-1-yl)-6-azaindol-3-yl)-oxoacetyl]piperazine] was run?
A: < 1 µM

Q: Which EC50 does the source give for COc1cnc(-n2nccc2N)c2[nH]cc(C(=O)C(=O)N3CCN(C(=O)c4ccccc4)[C@H](C)C3)c12 [Example 254, (R)-1-benzoyl-2-methyl-4-[(4-methoxy-7-(5-amino-pyrazol-1-yl)-6-azaindol-3-yl)-oxoacetyl]piperazine] here?
A: < 1 µM

Same assay, conditions: Human immunodeficiency virus 1, HeLa-CD4/CCR5, read-out: EC50 Group from Table 1, Table 4; HeLa CD4 CCR5 cells, single-round luciferase reporter virus

Q: Which EC50 does the source give for CON(C)C(=O)c1ccnc2c(C(=O)C(=O)N3CCN(C(=O)c4ccccc4)C[C@H]3C)c[nH]c12 [Example 57] here?
A: < 1 µM

Q: Which EC50 does the source give for C[C@@H]1CN(C(=O)c2ccccc2)CCN1C(=O)C(=O)c1c[nH]c2c(-c3cnccn3)ccnc12 [Example 52, 1-benzoyl-3-(R)-methyl-4-[(7-(pyrazin-2-yl)-4-azaindol-3-yl)-oxoacetyl]piperazine] here?
A: < 1 µM

Q: With CCOC(=O)c1cc(-c2ccnc3c(C(=O)C(=O)N4CCN(C(=O)c5ccccc5)CC4)c[nH]c23)n[nH]1 [Example 202, 5-{3-[2-(4-Benzoyl-piperazin-1-yl)-2-oxo-acetyl]-1H-pyrrolo[3,2-b]pyridin-7-yl}-2H-pyrazole-3-carboxylic acid ethyl ester] as the compound, how does the EC50 read?
A: < 1 µM

Q: How did the EC50 turn out when Cc1nc(-c2cc(Cl)nc3c(C(=O)C(=O)N4CCN(C(=O)c5ccccc5)C[C@H]4C)c[nH]c23)[nH]c1C [Example 62, 1-benzoyl-3-(R)-methyl-4-[(5-chloro-7-(4,5-dimethyl-imidazol-2-yl)-4-azaindol-3-yl)-oxoacetyl]piperazine] was run?
A: < 1 µM
